For 13 compounds, ID50 and ED50 results are on record in patent US4818749A, “Carboxyalkyl dipeptides and medical use thereof in treating hypertension and congestive heart failure” (Schering Corporation, priority 1981, dated 1989).

This test addresses T1, angiotensin converting enzyme (ACE) (Rattus norvegicus, UniProt P47820).
T1 construct: Drugs were injected intravenously; from tissue; host or cells: whole living animal (anesthetized Sprague-Dawley rat); no enzyme isolated
T1 sequence (P47820 36-1313): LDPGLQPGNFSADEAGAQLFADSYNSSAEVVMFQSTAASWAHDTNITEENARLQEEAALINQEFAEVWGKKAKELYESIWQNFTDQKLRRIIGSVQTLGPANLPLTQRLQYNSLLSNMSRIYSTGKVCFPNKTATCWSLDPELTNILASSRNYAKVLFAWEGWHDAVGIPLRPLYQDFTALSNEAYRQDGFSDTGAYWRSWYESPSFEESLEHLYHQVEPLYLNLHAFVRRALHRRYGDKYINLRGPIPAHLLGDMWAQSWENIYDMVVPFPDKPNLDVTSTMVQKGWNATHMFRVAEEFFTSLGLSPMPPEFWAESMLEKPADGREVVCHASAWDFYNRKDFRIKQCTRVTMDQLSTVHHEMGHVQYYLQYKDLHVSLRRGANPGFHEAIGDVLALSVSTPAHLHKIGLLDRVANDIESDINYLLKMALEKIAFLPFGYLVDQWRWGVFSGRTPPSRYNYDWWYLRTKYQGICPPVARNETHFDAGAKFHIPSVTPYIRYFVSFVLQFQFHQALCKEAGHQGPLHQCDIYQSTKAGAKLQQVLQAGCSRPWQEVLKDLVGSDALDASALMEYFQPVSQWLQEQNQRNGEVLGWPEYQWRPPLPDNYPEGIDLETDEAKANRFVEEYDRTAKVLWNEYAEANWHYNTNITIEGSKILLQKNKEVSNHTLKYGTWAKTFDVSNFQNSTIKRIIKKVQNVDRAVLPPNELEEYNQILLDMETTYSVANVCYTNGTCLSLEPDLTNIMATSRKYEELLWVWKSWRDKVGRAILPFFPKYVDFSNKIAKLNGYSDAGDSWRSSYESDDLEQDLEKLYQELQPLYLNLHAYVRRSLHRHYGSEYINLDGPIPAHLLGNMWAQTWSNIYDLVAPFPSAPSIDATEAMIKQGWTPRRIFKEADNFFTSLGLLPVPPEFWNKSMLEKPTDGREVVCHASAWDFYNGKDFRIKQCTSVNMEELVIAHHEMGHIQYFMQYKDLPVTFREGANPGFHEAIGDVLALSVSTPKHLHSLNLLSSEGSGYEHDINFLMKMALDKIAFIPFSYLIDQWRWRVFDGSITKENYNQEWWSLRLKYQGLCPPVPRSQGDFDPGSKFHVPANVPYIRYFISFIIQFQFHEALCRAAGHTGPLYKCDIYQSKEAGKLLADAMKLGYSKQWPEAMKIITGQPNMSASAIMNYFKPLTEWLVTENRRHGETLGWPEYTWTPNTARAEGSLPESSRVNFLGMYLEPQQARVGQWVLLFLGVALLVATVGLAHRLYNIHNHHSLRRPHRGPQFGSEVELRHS
Kind of test: ACE inhibition in anesthetized rats: inhibition of angiotensin I pressor response after iv test drug. The format is in vivo, Sprague-Dawley rats. The following applies: for ID50: anesthetized Sprague-Dawley rats, drug iv, angiotensin I challenge 5 min after dosing, blood pressure response as percent of control, linear regression.

For the compound `CCOC(=O)[C@H](CSCc1ccc(C)cc1)NC(C)C(=O)N1C2CCCCC2C[C@H]1C(=O)O` (relative stereo) [4-methylbenzyl-thiomethyl, 1-[N-[1(R)-Ethoxycarbonyl-2-(4-methylbenzylthio)ethyl]-(R,S)-alanyl]-cis,syn-perhydroindole-2(S)-carboxylic acid], the ID50 was 88 µg/kg.
The same measure, in the same setting: in the case of `CCOC(=O)[C@H](CSCc1ccccc1)NC(C)C(=O)N1C2CCCCC2C[C@H]1C(=O)O.Cl` (relative stereo) [Compound 3, 1-[N-[1(R)-Ethoxycarbonyl-2-(benzylthio)ethyl]-(R,S)-alanyl]-cis,syn-perhydroindole-2(S)-carboxylic acid, hydrochloride] it was 30 µg/kg.
On the same count and under the same terms, then `CCOC(=O)[C@H](CSCc1ccccc1)N[C@@H](C)C(=O)N1[C@H](C(=O)O)C[C@@H]2CCCC[C@@H]21` (relative stereo) [Compound 4, 1-[N-[1(R)-EthoxYcarbonyl-2-(benzylthio)ethyl]-(S)-alanyl]-cis,syn-perhydroindole-2(S)-carboxylic acid], with 29 µg/kg; and `Br.CCOC(=O)[C@H](CSCc1ccccc1)N[C@H](C)C(=O)N1[C@H](C(=O)O)C[C@@H]2CCCC[C@@H]21` (relative stereo) [Compound 5, 1-[N-[1(R)-Ethoxycarbonyl-2-(benzylthio)ethyl]-(R)-alanyl]-cis,syn-perhydroindole-2(S)-carboxylic acid, hydrobromide], with 350 µg/kg.
On the same count and under the same terms, in the case of `CCOC(=O)[C@H](CSCc1ccc2ccccc2c1)N[C@@H](C)C(=O)N1[C@H](C(=O)O)C[C@@H]2CCCC[C@@H]21.Cl` (relative stereo) [Compound 6, 1-[N-[1(R)-Ethoxycarbonyl-2-(2-naphthylmethylthio)ethyl]-(S)-alanyl]-cis,syn-perhydroindole-2(S)-carboxylic acid hydrochloride] it was more than 100 µg/kg.
On to `CCOC(=O)[C@H](CSCc1ccc2ccccc2c1)N[C@H](C)C(=O)N1C2CCCCC2C[C@H]1C(=O)O.Cl` (relative stereo) [Compound 7, 1-[N-[1(R)-Ethoxycarbonyl-2-(2-naphthylmethylthio)ethyl]-(R)alanyl]-cis,syn-perhydroindole-2(S)-carboxylic acid hydrochloride], for which the ID50 is > 1,000 μg/kg.
`CCOC(=O)[C@H](CSCCc1ccccc1)N[C@@H](C)C(=O)N1C2CCCCC2C[C@H]1C(=O)O.Cl` (relative stereo) [Compound 8, 1-[N-[1(R)-Ethoxycarbonyl-2-(phenylethylthio)ethyl]-(S)alanyl]-cis,syn-perhydroindole-2(S)-carboxylic acid hydrochloride] had an ID50 of 32 µg/kg.
On the same count and under the same terms, in the case of `CCOC(=O)[C@H](CSCCc1ccccc1)N[C@H](C)C(=O)N1[C@H](C(=O)O)C[C@@H]2CCCC[C@@H]21.Cl` (relative stereo) [Compound 9, 1-[N-[1(R)-Ethoxycarbonyl-2-(phenylethylthio)ethyl]-(R)alanyl]-cis,syn-perhydroindole-2(S)-carboxylic acid hydrochloride] it was > 1,000 μg/kg; in that of `C[C@H](N[C@@H](CCc1ccc(C(=O)O)cc1)C(=O)O)C(=O)N1C2CCCCC2C[C@H]1C(=O)O` (relative stereo) [Compound 10, 1-[N-[1(S)-Carboxy-3-(4-carboxyphenyl)propyl]-(S)-alanyl]-cis,syn-perhydroindole-2(S)-carboxylic acid], 11 µg/kg; in that of `CCOC(=O)[C@H](CSCc1ccccc1)NC(C)C(=O)N1CCC[C@H]1C(=O)O.Cl` (stereo partly drawn) [Compound 1, N-(1(R)-Ethoxycarbonyl-2-benzylthioethyl)-(R,S)-alanyl-(S)-proline hydrochloride], 66 µg/kg.
Same read-out and setting: in the case of `CCOC(=O)[C@H](COCc1ccccc1)NC(C)C(=O)N1CCC[C@H]1C(=O)O.Cl` (stereo partly drawn) [Compound 2, N-(1(S)-Ethoxycarbonyl-2-benzyloxyethyl)-(R,S)-alanyl-(S)-proline hydrochloride] it was 130 µg/kg; in that of `C[C@H](N[C@@H](CCc1ccccc1)C(=O)O)C(=O)N1CCC[C@H]1C(=O)O` [enalapril diacid, reference compound], 15 ± 3 µg/kg.
Turning to `CCOC(=O)[C@H](CCc1ccccc1)N[C@@H](C)C(=O)N1CCC[C@H]1C(=O)O` [enalapril, reference compound], the ED50 (rat, iv, 5 min, read-out: ID50) was determined as 0.057 ± 0.007 mg/kg.
